Experimental data from the NIST ThermoML archive (doi:10.1016/j.fluid.2008.03.004).

Test: xn = mol fraction of the nth substance listed
Conditions: 101 kPa, Liquid; for speed of sound: Sing-around technique in a fixed-path interferometer

COC(C)(C)C [2-methoxy-2-methylpropane] + Cc1ccc(C)cc1
Conditions	mass density [kg/m3]	speed of sound [m/s]
288.15 K, x1 = 0.051	859.904	1337.8
288.15 K, x1 = 0.111	853.391	1325
288.15 K, x1 = 0.199	843.55	1302.9
288.15 K, x1 = 0.297	832.629	1278.6
288.15 K, x1 = 0.394	821.398	1253
288.15 K, x1 = 0.5	808.782	1223.9
288.15 K, x1 = 0.591	797.744	1199.5
288.15 K, x1 = 0.7	784.294	1169.8
288.15 K, x1 = 0.799	771.481	1140.7
288.15 K, x1 = 0.898	758.534	1112.1
288.15 K, x1 = 0.949	751.828	1096.4
288.15 K, x1 = 1	744.861	1083.4
290.65 K, x1 = 0.051	857.719	1327.2
290.65 K, x1 = 0.111	851.187	1314.2
290.65 K, x1 = 0.199	841.317	1292.2
290.65 K, x1 = 0.297	830.36	1267.7
290.65 K, x1 = 0.394	819.092	1242
290.65 K, x1 = 0.5	806.435	1212.8
290.65 K, x1 = 0.591	795.358	1188.4
290.65 K, x1 = 0.7	781.856	1158.4
290.65 K, x1 = 0.799	768.993	1129.2
290.65 K, x1 = 0.898	755.997	1100.5
290.65 K, x1 = 0.949	749.262	1084.7
290.65 K, x1 = 1	742.259	1071.6
293.15 K, x1 = 0.051	855.534	1316.8
293.15 K, x1 = 0.111	848.983	1303.7
293.15 K, x1 = 0.199	839.08	1281.6
293.15 K, x1 = 0.297	828.088	1257
293.15 K, x1 = 0.394	816.783	1231.1
293.15 K, x1 = 0.5	804.082	1201.9
293.15 K, x1 = 0.591	792.963	1177.3
293.15 K, x1 = 0.7	779.412	1147.2
293.15 K, x1 = 0.799	766.5	1117.9
293.15 K, x1 = 0.898	753.452	1089
293.15 K, x1 = 0.949	746.689	1073.2
293.15 K, x1 = 1	739.654	1060
295.65 K, x1 = 0.051	853.348	1306.5
295.65 K, x1 = 0.111	846.775	1293.1
295.65 K, x1 = 0.199	836.841	1271
295.65 K, x1 = 0.297	825.813	1246.2
295.65 K, x1 = 0.394	814.47	1220.2
295.65 K, x1 = 0.5	801.723	1191
295.65 K, x1 = 0.591	790.564	1166.2
295.65 K, x1 = 0.7	776.96	1135.9
295.65 K, x1 = 0.799	763.998	1106.6
295.65 K, x1 = 0.898	750.898	1077.5
295.65 K, x1 = 0.949	744.102	1061.7
295.65 K, x1 = 1	737.036	1048.5
298.15 K, x1 = 0.051	851.161	1296.3
298.15 K, x1 = 0.111	844.568	1282.7
298.15 K, x1 = 0.199	834.598	1260.5
298.15 K, x1 = 0.297	823.534	1235.5
298.15 K, x1 = 0.394	812.151	1209.4
298.15 K, x1 = 0.5	799.359	1180.1
298.15 K, x1 = 0.591	788.159	1155.2
298.15 K, x1 = 0.7	774.504	1124.7
298.15 K, x1 = 0.799	761.487	1095.3
298.15 K, x1 = 0.898	748.333	1066
298.15 K, x1 = 0.949	741.507	1050.2
298.15 K, x1 = 1	734.406	1036.9
300.65 K, x1 = 0.051	848.97	1286.1
300.65 K, x1 = 0.111	842.356	1272.2
300.65 K, x1 = 0.199	832.351	1249.9
300.65 K, x1 = 0.297	821.251	1224.8
300.65 K, x1 = 0.394	809.83	1198.7
300.65 K, x1 = 0.5	796.99	1169.2
300.65 K, x1 = 0.591	785.75	1144.2
300.65 K, x1 = 0.7	772.04	1113.5
300.65 K, x1 = 0.799	758.97	1084
300.65 K, x1 = 0.898	745.759	1054.6
300.65 K, x1 = 0.949	738.9	1038.8
300.65 K, x1 = 1	731.766	1025.4
303.15 K, x1 = 0.051	846.775	1275.9
303.15 K, x1 = 0.111	840.14	1261.8
303.15 K, x1 = 0.199	830.102	1239.4
303.15 K, x1 = 0.297	818.963	1214.2
303.15 K, x1 = 0.394	807.503	1187.9
303.15 K, x1 = 0.5	794.615	1158.4
303.15 K, x1 = 0.591	783.333	1133.2
303.15 K, x1 = 0.7	769.567	1102.4
303.15 K, x1 = 0.799	756.446	1072.8
303.15 K, x1 = 0.898	743.176	1043.3
303.15 K, x1 = 0.949	736.284	1027.4
303.15 K, x1 = 1	729.112	1013.9
305.65 K, x1 = 0.051	844.579	1265.7
305.65 K, x1 = 0.111	837.921	1251.5
305.65 K, x1 = 0.199	827.849	1228.9
305.65 K, x1 = 0.297	816.672	1203.5
305.65 K, x1 = 0.394	805.171	1177.3
305.65 K, x1 = 0.5	792.236	1147.6
305.65 K, x1 = 0.591	780.907	1122.3
305.65 K, x1 = 0.7	767.085	1091.3
305.65 K, x1 = 0.799	753.909	1061.6
305.65 K, x1 = 0.898	740.58	1031.9
305.65 K, x1 = 0.949	733.654	1016
305.65 K, x1 = 1	726.444	1002.4
308.15 K, x1 = 0.051	842.382	1255.6
308.15 K, x1 = 0.111	835.701	1241.2
308.15 K, x1 = 0.199	825.592	1218.5
308.15 K, x1 = 0.297	814.375	1193
308.15 K, x1 = 0.394	802.832	1166.6
308.15 K, x1 = 0.5	789.848	1136.9
308.15 K, x1 = 0.591	778.473	1111.4
308.15 K, x1 = 0.7	764.594	1080.2
308.15 K, x1 = 0.799	751.361	1050.5
308.15 K, x1 = 0.898	737.971	1020.6
308.15 K, x1 = 0.949	731.009	1004.7
308.15 K, x1 = 1	723.763	990.99
310.65 K, x1 = 0.051	840.182	1245.6
310.65 K, x1 = 0.111	833.476	1230.9
310.65 K, x1 = 0.199	823.333	1208.2
310.65 K, x1 = 0.297	812.074	1182.6
310.65 K, x1 = 0.394	800.49	1156.1
310.65 K, x1 = 0.5	787.456	1126.2
310.65 K, x1 = 0.591	776.037	1100.6
310.65 K, x1 = 0.7	762.097	1069.3
310.65 K, x1 = 0.799	748.806	1039.4
310.65 K, x1 = 0.898	735.351	1009.4
310.65 K, x1 = 0.949	728.354	993.41
310.65 K, x1 = 1	721.069	979.62
313.15 K, x1 = 0.051	837.972	1235.6
313.15 K, x1 = 0.111	831.247	1220.7
313.15 K, x1 = 0.199	821.068	1197.8
313.15 K, x1 = 0.297	809.766	1172.2
313.15 K, x1 = 0.394	798.142	1145.5
313.15 K, x1 = 0.5	785.055	1115.5
313.15 K, x1 = 0.591	773.588	1089.9
313.15 K, x1 = 0.7	759.588	1058.4
313.15 K, x1 = 0.799	746.238	1028.3
313.15 K, x1 = 0.898	732.717	998.27
313.15 K, x1 = 0.949	725.685	982.13
313.15 K, x1 = 1	718.357	968.16
315.65 K, x1 = 0.051	835.765	1225.6
315.65 K, x1 = 0.111	829.014	1210.5
315.65 K, x1 = 0.199	818.798	1187.5
315.65 K, x1 = 0.297	807.454	1161.8
315.65 K, x1 = 0.394	795.788	1135
315.65 K, x1 = 0.5	782.649	1104.9
315.65 K, x1 = 0.591	771.132	1079.1
315.65 K, x1 = 0.7	757.069	1047.5
315.65 K, x1 = 0.799	743.66	1017.3
315.65 K, x1 = 0.898	730.073	987.1
315.65 K, x1 = 0.949	723.003	970.91
315.65 K, x1 = 1	715.636	956.8
318.15 K, x1 = 0.051	833.554	1215.7
318.15 K, x1 = 0.111	826.778	1200.4
318.15 K, x1 = 0.199	816.524	1177.3
318.15 K, x1 = 0.297	805.138	1151.5
318.15 K, x1 = 0.394	793.428	1124.6
318.15 K, x1 = 0.5	780.236	1094.3
318.15 K, x1 = 0.591	768.668	1068.5
318.15 K, x1 = 0.7	754.544	1036.7
318.15 K, x1 = 0.799	741.073	1006.4
318.15 K, x1 = 0.898	727.417	976.02
318.15 K, x1 = 0.949	720.308	959.76
318.15 K, x1 = 1	712.897	945.54
320.65 K, x1 = 0.051	831.342	1205.8
320.65 K, x1 = 0.111	824.54	1190.3
320.65 K, x1 = 0.199	814.248	1167.1
320.65 K, x1 = 0.297	802.819	1141.1
320.65 K, x1 = 0.394	791.063	1114.2
320.65 K, x1 = 0.5	777.817	1083.8
320.65 K, x1 = 0.591	766.199	1057.9
320.65 K, x1 = 0.7	752.007	1025.9
320.65 K, x1 = 0.799	738.474	995.49
320.65 K, x1 = 0.898	724.747	964.93
320.65 K, x1 = 0.949	717.599	948.61
320.65 K, x1 = 1	710.141	934.24
323.15 K, x1 = 0.051	829.134	1196
323.15 K, x1 = 0.111	822.307	1180.4
323.15 K, x1 = 0.199	811.976	1157.1
323.15 K, x1 = 0.297	800.501	1131
323.15 K, x1 = 0.394	788.703	1103.9
323.15 K, x1 = 0.5	775.403	1073.3
323.15 K, x1 = 0.591	763.728	1047.4
323.15 K, x1 = 0.7	749.471	1015.2
323.15 K, x1 = 0.799	735.877	984.7
323.15 K, x1 = 0.898	722.077	954
323.15 K, x1 = 0.949	714.887	937.58
323.15 K, x1 = 1	707.381	922.97
